The results in this text go back to patent publication US5834506A, “Dihydropyrones with improved antiviral activity” (Warner-Lambert Company, priority 1997, dated 1998).

Read-outs that look alike come from different tables or passages of the source. Where only a bound is given, the exact number is not on record here.

One data set addresses T1, HIV-1 protease (Human immunodeficiency virus type 1 group M subtype B, UniProt P04585).
T1 construct: Recombinant HIV-1 protease (>96% purity); purchased Bachem Bioscience Inc. (King of Prussia, PA)
In words: biochemical. Particulars: read-out: Inhib of HIV-Protease IC50. The text has this:
The testing of specific 5,6-dihydropyrones as inhibitors of the HIV aspartyl protease, based on the study of the hydrolysis of an undecapeptide enzyme substrate, and the testing of the 5,6-dihydropyrones as inhibitors of viral growth and infectivity, based on the study of infection of H9 cell lines by the HIV-1iiib strain, are also disclosed. […] The methods employed follow the procedures of Tummino, et al. (Archives of Biochemistry and Biophysics 1995, 316, 523).
(§1) The compounds of the present invention were evaluated for their in vitro inhibition of HIV-1 protease and for their antiviral efficacy in HIV infected lymphocytes.
Recombinant HIV-1 protease (>96% purity) and HIV protease substrate III (the undecapeptide H-His-Lys-Ala-Arg-Val-Leu-Nph-Glu-Ala-Nle-Ser-NH2,>97% purity) were purchased from Bachem Bioscience Inc. (King of Prussia, PA).
The methods employed follow the procedures of Tummino, et al. (Archives of Biochemistry and Biophysics 1995, 316, 523). […] (total volume, 100 μl). […] The final inhibitor concentrations used were 0 (0.1, 0.2, in some experiments), 0.5, 1, 2, 5, 10, 20, 50, and 100 μM. The solution was mixed, incubated for 5 minutes and the reaction quenched by addition of trifluoracetic acid, 2% final. The (leu-p-nitro-phe) bond of the substrate is cleaved by the enzyme and substrate and products separated by reverse-phase HPLC. Absorbance was measured at 220 nm, peak areas determined, and percentage conversion to product used to calculate percentage control (=[% conversion (+inhibitor)/% conversion (-inhibitor)]×100).

In data set [1] the test system is HIV in lymphocyte derived CEM cells. The experiment in a line: Cellular Infection Assay, antiviral efficacy in HIV infected CEM cells (XTT cytopathic procedure). Particulars: Human immunodeficiency virus 1, CCRF-CEM; for EC95: protecting the cells 95% relative to untreated control; for EC50: read-out: Antiviral Efficacy EC50. Type of data set: cell-based. The protocol: as §1
(§2) Compounds were tested in lymphocyte derived CEM cells using the XTT cytopathic procedures and were performed at Southern Research Institute (Buckheit, et. al. Antiviral Res. 1993, 21, 247; see also Weislow, et al. J Nat. Cancer Inst., 1989, 81, 577). Compound concentrations were 0.32, 1, 3.2, 10, 32 and 100 uM. The EC50 represents the concentration of agent which reduces HIV cytopathic effects 50% relative to untreated control. EC95 represents the concentration of agent protecting the cells 95% relative to untreated control. Cellular toxicity of the agents are estimated from the TC50 which represents the concentration of the agent which inhibits 50% of the viability of uninfected cells.
(In general: Tetrazolium dyes change colour on reduction, which living cells bring about.)

A short description of data set [2]: Cellular toxicity in uninfected CEM cells (TC50). It counts as cell-based. The settings on record: human, inhibits 50% of the viability of uninfected cells. The protocol: as §2
Setting [3] is: 6.0 nM HIV-1 protease, 40 μM substrate III, 37° C., 5 minutes.
The mark [4] stands for this setting: CEM cells, reduces HIV cytopathic effects 50% relative to untreated control.

In the case of `Cc1cc(SC2=C(O)C[C@@](CCc3ccccc3)(c3ccccc3)OC2=O)c(C(C)(C)C)cc1CO` [Example 17, 3-(tert-Butyl4-hydroxymethyl-5-methyl-phenylsulfanyl)-4-hydroxy-6-phenethyl-6-phenyl-5,6-dihydro-pyran-2-one (S isomer)], at HIV-1 protease (setting [3]), the IC50 worked out at 0.0039 µM. This compound also displayed an EC95 in data set [1] (CEM cells) of 7.5 µM. The EC50 in data set [1] (setting [4]) turned out to be 1.9 µM. This compound displayed a CC50 in data set [2] of 60 µM.

Consider `Cc1cc(SC2=C(O)CC(CCc3ccc(O)cc3)(CCc3ccc(O)cc3)OC2=O)c(C(C)(C)C)cc1N` [Example 20, 3-(4-Amino-2-tert-butyl-5-methyl-phenylsulfanyl)-4-hydroxy-6,6-bis[2-(4-hydroxy-phenyl)ethyl]-5,6-dihydro-pyran-2-one], for which, on HIV-1 protease (setting [3]), the IC50 turned out to be 0.0029 µM. Moreover, in data set [1] (CEM cells), the EC95 is 9.6 µM. The EC50 in data set [1] (setting [4]) is 5 µM. The compound also came in with a CC50 in data set [2] of 65 µM.

Regarding `Cc1cc(SC2=C(O)CC(CCc3cccc(O)c3)(CCc3cccc(O)c3)OC2=O)c(C(C)(C)C)cc1CO` [Example 21, 3-(2-tert-Butyl-4-hydroxymethyl-5-methyl-phenylsulfanyl)-4-hydroxy-6,6-bis-[2-(3-hydroxy-phenyl)ethyl]-5,6-dihydro-pyran-2-one], the 50% inhibitory concentration (IC50) at HIV-1 protease (setting [3]) was found to be 0.0021 µM. For the same compound, the EC95 in data set [1] (CEM cells) stood at 9.3 µM. The EC50 in data set [1] (setting [4]) was 4.8 µM. In addition, the CC50 in data set [2] was 66 µM.

As to `Cc1cc(SC2=C(O)CC(CCc3cccc(O)c3)(CCc3cccc(O)c3)OC2=O)c(C(C)(C)C)cc1OS(=O)(=O)N(C)C` [Example 22, Dimethyl-sulfamic acid 5-tert-butyl-4-{4-hydroxy-6,6-bis-[2-(3-hydroxy-phenyl)-ethyl]-2-oxo-5,6-dihydro-2H-pyran-3-yisulfanyl}-2-methyl-phenyl ester], the IC50 on HIV-1 protease (setting [3]) is 0.009 µM. In addition, in data set [1] (CEM cells), the concentration for an effect of 95% (EC95) worked out at 8.3 µM. For the same compound, the EC50 in data set [1] (setting [4]) was 2.3 µM. Further, the midpoint of cytotoxicity in data set [2], the CC50, lay at 66 µM.

Take `COc1cc(CCC2(CCc3ccc(O)c(OC)c3)CC(O)=C(Sc3cc(C)c(OCCO)cc3C(C)(C)C)C(=O)O2)ccc1O` [Example 23, 3-[2-tert-Butyl-4-(2-hydroxy-ethoxy)-5-methyl-phenylsulfanyl]-4-hydroxy-6,6-bis [2-(4-hydroxy-3-methoxy-phenyl)-ethyl]-5,6-dihydro-pyran-2-one]: the IC50 on HIV-1 protease (setting [3]) is 0.0034 µM. In addition, the EC95 in data set [1] (CEM cells) is 7.9 µM. Besides, the EC50 in data set [1] (setting [4]) amounted to 2 µM. The compound further registered a CC50 in data set [2] of 61 µM.

For the compound `Cc1cc(SC2=C(O)CC(CCc3ccccc3)(c3ccc(OCCN4CCNCC4)cc3)OC2=O)c(C(C)(C)C)cc1OS(=O)(=O)N(C)C` (centres unmarked) [Example 26, Dimethyl-sulfamic acid 5-tert-butyl-4-{4-hydroxy-2-oxo-6-phenethyl-6-[4-(2-piperazin-1-yl-ethoxy)-phenyl]-5,6-dihydro-2H-pyran-3-ylsulfanyl}-2-methyl-phenyl ester], the IC50 on HIV-1 protease (setting [3]) is 0.0051 µM. The 50% effective concentration (EC50) in data set [1] turned out to be 5.1 µM. Also, in data set [1] (CEM cells), it took 9.3 µM to reach the 95% level (EC95). The CC50 in data set [2] was over 100 µM.

For the compound `CCNS(=O)(=O)Oc1cc(C(C)(C)C)c(SC2=C(O)CC(CCc3ccc(O)cc3)(CCc3ccc(O)cc3)OC2=O)cc1C` [Example 28], on HIV-1 protease (setting [3]), the IC50 stood at 0.0013 µM. The concentration for an effect of 95% (EC95) in data set [1] (CEM cells) came out at 9.4 µM. Moreover, the EC50 in data set [1] (setting [4]) amounted to 5.5 µM. The same compound came in with a CC50 in data set [2] of 67 µM.

For `CCNS(=O)(=O)Oc1cc(C(C)(C)C)c(SC2=C(O)CC(CCc3ccc(N)cc3)(CCc3ccc(N)cc3)OC2=O)cc1C` [Example 29, Ethyl-sulfamic acid 5-tert-butyl-4-{6,6-bis-[2-(4-amino-phenyl)-ethyl]-4-hydroxy-2-oxo-5,6-dihydro-2H-pyran-3-ylsulfanyl}2-methyl-phenyl ester], on HIV-1 protease (setting [3]), the IC50 came out at 0.0018 µM. The compound also gave an EC95 in data set [1] (CEM cells) of 2.9 µM. In addition, in data set [1] (setting [4]), the EC50 is 1.2 µM. For the same compound, the CC50 in data set [2] turned out to be 66 µM.

With `Cc1cc(SC2=C(O)CC(CCc3ccc(O)cc3)(CCc3ccc(O)cc3)OC2=O)c(C(C)(C)C)cc1OS(=O)(=O)N1CCN(C)CC1` [Example 30, 4-Methyl-piperazine-1-sulfonic acid 5-tert-butyl-4-{4-hydroxy-6,6-bis-[2-(4-hydroxy-phenyl)-ethyl]-2-oxo-5,6-dihydro-2H-pyran-3-ylsulfanyl}-2-methyl-phenyl ester], the IC50 at HIV-1 protease (setting [3]) is 0.0055 µM. The compound further registered an EC95 in data set [1] (CEM cells) of 9.3 µM. In addition, the concentration giving a half-maximal response (EC50) in data set [1] (setting [4]) is 5 µM. This compound also came in with a CC50 in data set [2] of 66 µM.

As for `Cc1cc(SC2=C(O)CC(C)(CCc3ccc(O)cc3)OC2=O)c(C(C)(C)C)cc1OS(=O)(=O)N1CCN(C)CC1` (centres unmarked) [Example 31, 4-Methyl-piperazine-1-sulfonic acid 5-tert-butyl-4-{4-hydroxy-6-[2-(4-hydroxy-phenyl)-ethyl]-6-methyl-2-oxo-5,6-dihydro-2H-pyran-3-ylsulfanyl}-2-methyl-phenyl ester], on HIV-1 protease (setting [3]), the IC50 was determined as 0.0071 µM. The compound further had a 95% effect concentration (EC95) in data set [1] (CEM cells) of 8.4 µM. For the same compound, the EC50 in data set [1] (setting [4]) worked out at 2.3 µM. The CC50 in data set [2] was over 100 µM.

`Cc1ccc(C(C)(C)C)c(SC2=C(O)CC(CCc3ccccc3)(c3ccc(OCCN4CCNCC4)cc3)OC2=O)c1` (centres unmarked) [Example 35, 3-(2-tert-Butyl-5-methyl-phenylsulfanyl)-4-hydroxy-6-phenethyl-6-[4-(2-piperazin-1-yl-ethoxy)-phenyl]-5,6-dihydro-pyran-2-one]: on HIV-1 protease (setting [3]), the IC50 stood at 0.0063 µM. Besides, it took 8 µM to reach the 95% level in data set [1] (CEM cells) (EC95). In data set [1] (setting [4]), the EC50 was found to be 3.5 µM. In data set [2], this compound yielded a cytotoxic concentration (CC50) of 84 µM.

Consider `Cc1cc(SC2=C(O)CC(CCc3ccc(O)cc3)(c3ccccc3)OC2=O)c(C(C)(C)C)cc1CO` (centres unmarked) [Example 36, 3-(2-tert-Butyl-4-hydroxymethyl-5-methyl-phenylsulfanyl)-4-hydroxy-6-[2-(4-hydroxy-phenyl)-ethyl]-6-phenyl-5,6-dihydro-pyran-2-one], for which the IC50 at HIV-1 protease (setting [3]) worked out at 0.0016 µM. The compound also had an EC95 in data set [1] (CEM cells) of 20 µM. For the same compound, the EC50 in data set [1] (setting [4]) worked out at 4.7 µM. The CC50 in data set [2] was over 100 µM.

Consider `Cc1cc(SC2=C(O)CC(CCc3cccc(O)c3)(c3ccccc3)OC2=O)c(C(C)(C)C)cc1CO` (centres unmarked) [Example 37, 3-(2-tert-Butyl-4-hydroxymethyl-5-methyl-phenylsulfanyl)-4-hydroxy-6-[2-(3-hydroxy-phenyl)-ethyl]-6-phenyl-5,6-dihydro-pyran-2-one], for which the half-maximal inhibitory concentration (IC50) on HIV-1 protease is 0.0025 µM. Besides, the 50% effective concentration (EC50) in data set [1] (setting [4]) came to 6.1 µM. Moreover, in data set [2], the CC50 was over 100 µM.

On to `Cc1cc(SC2=C(O)C[C@@](CCc3ccc(O)cc3)(C(C)C)OC2=O)c(C(C)(C)C)cc1CO` [Example 38, (S)-3-(2-tert-Butyl-4-hydroxymethyl-5-methyl-phenylsulfanyl)-4-hydroxy-6-[2-(4-hydroxy-phenyl)-ethyl]-6-isopropyl-5,6-dihydro-pyran-2-one (+)], for which the IC50 on HIV-1 protease came to 0.001 µM. For the same compound, in data set [1] (CEM cells), the 95% effect level (EC95) was put at 1 µM. In addition, in data set [1] (setting [4]), the EC50 was under 0.3 µM. For the same compound, the cytotoxic concentration (CC50) in data set [2] is over 100 µM.

With `Cc1cc(SC2=C(O)CC(CCc3cccc(O)c3)(C3CCCC3)OC2=O)c(C(C)(C)C)cc1CO` (centres unmarked) [Example 39, 3-(2-tert-Butyl-4-hydroxymethyl-5-methyl-phenylsulfanyl)-6-cyclopentyl-4-hydroxy-6-[2-(3-hydroxy-phenyl)-ethyl]-5,6-dihydro-pyran-2-one], the IC50 on HIV-1 protease (setting [3]) is 0.0019 µM. This compound also showed an EC95 in data set [1] (CEM cells) of 0.6 µM. Besides, in data set [1] (setting [4]), the EC50 is under 0.3 µM. In data set [2], this compound registered a CC50 of over 100 µM.

As to `Cc1cc(SC2=C(O)CC(C)(CCc3ccc(O)cc3)OC2=O)c(C(C)(C)C)cc1OS(N)(=O)=O` (centres unmarked) [Example 43], the half-inhibitory concentration (IC50) on HIV-1 protease (setting [3]) came to 0.0018 µM. Besides, the 95% effect level in data set [1] (CEM cells) (EC95) was put at 9.4 µM. For the same compound, in data set [1] (setting [4]), the EC50 was determined as 5.2 µM. The compound further had a half-maximal cytotoxic concentration (CC50) in data set [2] of 69 µM.

`Cc1cc(SC2=C(O)CC(CCc3ccccc3)(c3ccc(OCCO)cc3)OC2=O)c(C(C)(C)C)cc1OS(=O)(=O)N1CCN(C)CC1` (centres unmarked) [Example 46]: the IC50 on HIV-1 protease (setting [3]) was found to be 0.012 µM. In data set [1] (CEM cells), this compound registered an EC95 of 9.8 µM. Besides, in data set [1] (setting [4]), the EC50 was found to be 5.4 µM. The same compound gave a CC50 in data set [2] of 58 µM.

In the case of `CCNS(=O)(=O)Oc1cc(C(C)(C)C)c(SC2=C(O)CC(CCc3ccc(O)c(OC)c3)(c3ccc(OCCO)cc3)OC2=O)cc1C` (centres unmarked) [Example 48], the IC50 on HIV-1 protease (setting [3]) is 0.0024 µM. The same compound yielded an EC95 in data set [1] (CEM cells) of 26 µM. The EC50 in data set [1] (setting [4]) is 6.9 µM. This compound also registered a CC50 in data set [2] of over 100 µM.

By IC50 is commonly meant the concentration that gives 50% inhibition. What is called EC95 is the concentration needed for an effect of 95%. A higher EC95 goes with weaker potency. The EC50 is the concentration at which the effect is half-maximal. The CC50 is the concentration giving 50% cytotoxicity. Low readings indicate harm at low concentration, high ones better tolerance by the cells.
